# Measurements published in ChEMBL document CHEMBL3832548, “DailyMed|setid=ba1cca98-f350-4655-88e3-6ef990779fb9 | KETEK - telithromycin tablet, film coated|Physicians Total Care, Inc”.
# Tests used:
# Type in all cases: ADME, organism-based
# [1] = The pharmacokinetics of Telithromycin evaluated after administration of single 800-mg doses to healthy adult subjects.; parameters: dose 800 mg, route oral; conditions: human, in vivo, dosed compound id 4, dosed compound name TELITHROMYCIN, gender adult male and female, regimen Single dose, tissue Plasma
# [2] = The pharmacokinetics of Telithromycin evaluated after administration of multiple 800-mg doses to healthy adult subjects.; parameters: dose 800 mg, route oral; conditions: human, in vivo, dosed compound id 4, dosed compound name TELITHROMYCIN, gender adult male and female, regimen Multiple dose, tissue Plasma
# [3] = (§1) The pharmacokinetics of Telithromycin evaluated after administration of Ketek to subjects.; conditions: human, in vivo; dosed compound id 4, dosed compound name TELITHROMYCIN, route oral, tissue Feces; read-out: Excretion
# Homo sapiens = assay: as §1; conditions: in vivo, po, dosed compound id 4, dosed compound name TELITHROMYCIN, tissue Urine
# [4] = po, 800 mg, read-out: AUC(0-24)
smiles,measurement,setting,value
CC[C@H]1OC(=O)[C@H](C)C(=O)[C@H](C)[C@@H](O[C@@H]2O[C@H](C)C[C@H](N(C)C)[C@H]2O)[C@](C)(OC)C[C@@H](C)C(=O)[C@H](C)[C@H]2N(CCCCn3cnc(-c4cccnc4)c3)C(=O)O[C@]12C [TELITHROMYCIN],Cmax,"[1]; po, 800 mg",1900 ng/mL
same,AUC,[1]; [4],8250 ng·h/mL
same,Tmax,"[1]; dose 800 mg, route oral",1 h
same,half-life,"[1]; dose 800 mg, route oral",7.16 h
same,concentration at 24 h,"[1]; dose 800 mg, route oral, read-out: C(24h)",30 ng/mL
same,Cmax,"[2]; po, 800 mg",2270 ng/mL
same,AUC,[2]; [4],12500 ng·h/mL
same,Tmax,"[2]; dose 800 mg, route oral",1 h
same,half-life,"[2]; dose 800 mg, route oral",9.81 h
same,dose excreted,[3],7%
same,Excretion,Homo sapiens,13%
